From patent US11084818B2 (HEPO PHARMACEUTICAL CO., LTD., priority 2016, dated 2021) come the findings set out here.

A value given as a limit tells only on which side of the number the result lay.

The target of assay [1] is T1, hTLR8 (Homo sapiens, UniProt Q9NR97).
T1 construct: host or cells: HEK-Blue hTLR8 (HEK293-derived reporter line)
T1 sequence (Q9NR97 27-1041): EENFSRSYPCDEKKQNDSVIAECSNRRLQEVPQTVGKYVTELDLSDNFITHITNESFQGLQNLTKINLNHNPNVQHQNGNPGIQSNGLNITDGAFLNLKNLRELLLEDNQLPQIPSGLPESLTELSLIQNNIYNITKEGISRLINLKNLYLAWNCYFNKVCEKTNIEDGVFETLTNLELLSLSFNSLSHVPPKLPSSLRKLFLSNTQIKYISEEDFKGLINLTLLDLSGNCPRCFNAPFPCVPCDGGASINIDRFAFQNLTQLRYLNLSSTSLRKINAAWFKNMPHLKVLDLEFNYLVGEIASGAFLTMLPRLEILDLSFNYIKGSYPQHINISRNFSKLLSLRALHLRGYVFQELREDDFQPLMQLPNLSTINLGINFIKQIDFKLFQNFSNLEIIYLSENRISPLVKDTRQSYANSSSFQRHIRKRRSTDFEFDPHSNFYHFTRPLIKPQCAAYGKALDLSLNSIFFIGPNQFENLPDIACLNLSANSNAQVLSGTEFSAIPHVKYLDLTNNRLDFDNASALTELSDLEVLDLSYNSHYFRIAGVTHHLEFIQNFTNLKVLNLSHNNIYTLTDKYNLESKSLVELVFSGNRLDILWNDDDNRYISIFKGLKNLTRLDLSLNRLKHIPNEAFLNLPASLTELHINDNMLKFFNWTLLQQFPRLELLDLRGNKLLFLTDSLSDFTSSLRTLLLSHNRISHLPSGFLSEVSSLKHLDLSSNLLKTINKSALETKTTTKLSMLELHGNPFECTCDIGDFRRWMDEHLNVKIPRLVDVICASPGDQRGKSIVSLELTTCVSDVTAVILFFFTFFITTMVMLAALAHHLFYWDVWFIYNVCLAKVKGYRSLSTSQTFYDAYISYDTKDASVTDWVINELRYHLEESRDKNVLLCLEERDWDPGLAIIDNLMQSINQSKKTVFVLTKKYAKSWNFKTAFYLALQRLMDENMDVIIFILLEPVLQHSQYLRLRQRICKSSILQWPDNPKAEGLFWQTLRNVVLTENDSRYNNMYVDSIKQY
Kind of assay: Activation activity test of hTLR8 (HEK-Blue hTLR8 cells, QUANTI-Blue OD650). The class given is cell-based. As to conditions: HEK-Blue hTLR8 cells, 24 hours incubation; read-out: TLR8 (EC50).

The target of assay [2] is T2, hTLR7 (Homo sapiens, UniProt Q9NYK1).
T2 construct: host or cells: HEK-Blue hTLR7 (HEK293-derived reporter line)
T2 sequence (Q9NYK1 27-1049): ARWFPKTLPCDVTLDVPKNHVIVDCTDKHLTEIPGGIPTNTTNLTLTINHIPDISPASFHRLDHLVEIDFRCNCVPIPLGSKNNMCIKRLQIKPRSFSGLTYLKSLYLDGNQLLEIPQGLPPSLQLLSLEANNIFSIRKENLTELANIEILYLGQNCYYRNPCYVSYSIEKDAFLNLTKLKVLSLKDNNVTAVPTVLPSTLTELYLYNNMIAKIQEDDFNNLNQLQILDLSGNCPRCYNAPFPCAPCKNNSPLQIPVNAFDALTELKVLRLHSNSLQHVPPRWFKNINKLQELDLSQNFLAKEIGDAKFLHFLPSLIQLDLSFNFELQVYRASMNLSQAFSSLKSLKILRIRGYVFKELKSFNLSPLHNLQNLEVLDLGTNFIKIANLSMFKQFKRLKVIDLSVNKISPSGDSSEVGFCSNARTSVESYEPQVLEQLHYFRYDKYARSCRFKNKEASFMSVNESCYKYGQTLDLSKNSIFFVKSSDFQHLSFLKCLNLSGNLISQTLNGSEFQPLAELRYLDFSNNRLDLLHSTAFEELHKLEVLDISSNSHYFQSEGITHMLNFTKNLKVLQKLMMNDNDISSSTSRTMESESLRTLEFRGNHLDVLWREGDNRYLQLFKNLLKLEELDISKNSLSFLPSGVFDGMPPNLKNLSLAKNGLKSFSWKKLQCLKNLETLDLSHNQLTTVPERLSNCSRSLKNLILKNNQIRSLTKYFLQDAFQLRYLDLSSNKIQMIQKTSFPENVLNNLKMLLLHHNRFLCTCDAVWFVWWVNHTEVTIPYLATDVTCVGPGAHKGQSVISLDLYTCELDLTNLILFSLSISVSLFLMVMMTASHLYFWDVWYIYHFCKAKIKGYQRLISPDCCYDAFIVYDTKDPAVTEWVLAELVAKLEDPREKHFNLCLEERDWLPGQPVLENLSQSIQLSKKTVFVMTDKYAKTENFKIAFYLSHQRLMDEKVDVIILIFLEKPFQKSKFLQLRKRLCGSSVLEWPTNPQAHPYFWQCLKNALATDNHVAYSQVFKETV
Kind of assay: Activation activity test of hTLR7 (HEK-Blue hTLR7 cells, QUANTI-Blue OD650). The class given is cell-based. As to conditions: 24 hours incubation, read-out: TLR7 (EC50).

For assay [3], the target named is T2, hTLR7. Nature of the assay: EC50 of GS9620 for hTLR7 as reported in WO2016023511A1. The settings on record: in words, from the EC50 values reported in WO2016023511A1.

On to `COCCOc1ncc2nc(N)n(Cc3ccc(CN4CCCC4)cc3)c2n1` [Example 61, 2-(2-methoxyethoxy)-9-(4-(pyrrolidin-1-ylmethyl)benzyl)-7,9-dihydro-8H-purin-8-amine], for which the EC50 in assay [1] is above 100 µM; in assay [2], 10 to 100 µM.

With `COCCOc1ncc2[nH]c(=O)n(Cc3ccc(CN4CCCC4)c(F)c3)c2n1` [Example 62, 2-(2-methoxyethoxy)-9-(3-fluoro-4-(pyrrolidin-1-ylmethyl)benzyl)-7,9-dihydro-8H-purin-8-one], the EC50 in assay [1] is above 100 µM; in assay [2] it was 1 to 10 µM.

With `COCCOc1ncc2[nH]c(=O)n(Cc3ccc(CN4CCCC4)cc3F)c2n1` [Example 63, 2-(2-methoxyethoxy)-9-(2-fluoro-4-(pyrrolidin-1-ylmethyl)benzyl)-7,9-dihydro-8H-purin-8-one], the EC50 was above 100 µM in assay [1] and 1 to 10 µM in assay [2].

For `CC(C)OCCOc1ncc2[nH]c(=O)n(Cc3ccc(CN4CCCC4)cc3)c2n1` [Example 64, 9-(4-(pyrrolidin-1-ylmethyl)benzyl)-2-(2-isopropoxyethoxy)-7,9-dihydro-8H-purin-8-one], the figures for the EC50 in assay [1] and in assay [2] were above 100 µM and 1 to 10 µM, respectively.

Turning to `O=c1[nH]c2cnc(OCCOCC3CC3)nc2n1Cc1ccc(CN2CCCC2)cc1` [Example 65, 9-(4-(pyrrolidin-1-ylmethyl)benzyl)-2-(2-(cyclopropylmethoxy)ethoxy)-7,9-dihydro-8H-purin-8-one], the results for the EC50 in assay [1] and in assay [2] were above 100 µM and 1 to 10 µM, respectively.

As to `CCCCOc1ncc2[nH]c(=O)n(Cc3ccc(CN4CCCC4)cc3)c2n1` [Example 66, 9-(4-(pyrrolidin-1-ylmethyl)benzyl)-2-butoxy-7,9-dihydro-8H-purin-8-one], the concentration for a half-maximal effect (EC50) in assay [1] and in assay [2] was above 100 µM in each case.

Regarding `COCCOc1ncc2[nH]c(=O)n(CCc3ccc(CN4CCCC4)cc3)c2n1` [Example 67, 9-(4-(pyrrolidin-1-ylmethyl)phenethyl)-2-(2-methoxyethoxy)-7,9-dihydro-8H-purin-8-one], the EC50 in assay [1] and in assay [2] was above 100 µM each time.

As to `COCCOc1ncc2[nH]c(=O)n(Cc3ccc(CCN4CCCC4)cc3)c2n1` [Example 68, 9-(4-(2-(pyrrolidin-1-yl)ethyl)benzyl)-2-(2-methoxyethoxy)-7,9-dihydro-8H-purin-8-one], the results for the EC50 in assay [1] and in assay [2] were above 100 µM and 1 to 10 µM, respectively.

Take `COCCOc1nc(O)c2[nH]c(=O)n(Cc3ccc(CN4CCCC4)cc3)c2n1` [Example 69, 6-hydroxy-2-(2-methoxyethoxy)-9-(4-(pyrrolidin-1-ylmethyl)benzyl)-7,9-dihydro-8H-purin-8-one]: the figures for the EC50 in assay [1] and in assay [2] were above 100 µM and 10 to 100 µM, respectively.

Consider `COCCOc1nc(F)c2[nH]c(=O)n(Cc3ccc(CN4CCCC4)cc3)c2n1` [Example 70, 6-fluoro-2-(2-methoxyethoxy)-9-(4-(pyrrolidin-1-ylmethyl)benzyl)-7,9-dihydro-8H-purin-8-one], for which the EC50 in assay [1] was above 100 µM; in assay [2] it was 10 to 100 µM.

Turning to `CCCCOc1nc(N)c2c(n1)N(Cc1cccc(CN3CCCC3)c1)CC(=O)N2` [GS9620], the “selectivity to TLR7” value in assay [3] is “poor”.

For orientation: EC50 means the concentration that produces a half-maximal response.
